These are literature values, as cited in patent US11590237B2, “Pharmaceutical formulation comprising incretin-insulin conjugates” (Merck Sharp & Dohme Corp., priority 2017, dated 2023).

For the data set the following is noted: literature data [21].

For `CCCCCCCCCCCCCCCC(=O)N[C@@H](CCC(=O)NCCCC[C@H](NC(=O)[C@H](C)NC(=O)[C@H](C)NC(=O)[C@H](CCC(N)=O)NC(=O)CNC(=O)[C@H](CCC(=O)O)NC(=O)[C@H](CC(C)C)NC(=O)[C@H](Cc1ccc(O)cc1)NC(=O)[C@H](CO)NC(=O)[C@H](CO)NC(=O)[C@@H](NC(=O)[C@H](CC(=O)O)NC(=O)[C@H](CO)NC(=O)[C@@H](NC(=O)[C@H](Cc1ccccc1)NC(=O)[C@@H](NC(=O)CNC(=O)[C@H](CCC(=O)O)NC(=O)[C@H](C)NC(=O)[C@@H](N)Cc1cnc[nH]1)[C@@H](C)O)[C@@H](C)O)C(C)C)C(=O)N[C@@H](CCC(=O)O)C(=O)N[C@@H](Cc1ccccc1)C(=O)N[C@H](C(=O)N[C@@H](C)C(=O)N[C@@H](Cc1c[nH]c2ccccc12)C(=O)N[C@@H](CC(C)C)C(=O)N[C@H](C(=O)N[C@@H](CCCNC(=N)N)C(=O)NCC(=O)N[C@@H](CCCNC(=N)N)C(=O)NCC(=O)O)C(C)C)[C@@H](C)CC)C(=O)O` [liraglutide], the “Number of monomers in oligomers” value was 6-12 monomers.
